According to patent publication US20040225128A1 (priority 2001, published 2004):
Where a name gives a salt, the structure may show the parent alone. Read-outs that look alike come from different tables or passages of the source.

Experiments:
Hygroscopicity = type: physicochemical
[1] = as described in European Patent 0223403B; cited from earlier work
[2] = as described in European Patent 0223403B; cited from earlier work; remark: listed apart in the source

Row | Structure (SMILES) | Hygroscopicity (in words) (Hygroscopicity) | Hygroscopicity (in words) [1] | Stability (in words) [2]
1 | Fc1ccc([C@@H]2CCNC[C@H]2COc2ccc3c(c2)OCO3)cc1 [Example 3, paroxetine isethionate] | practically no adverse hygroscopicity characteristics | – | –
2 | Fc1ccc([C@@H]2CCNC[C@H]2COc2ccc3c(c2)OCO3)cc1 [Example 9, paroxetine hydrochloride hemi hydrate] | – | non-hygroscopic | stable
